Columns and labels:
johnsongrass = test: Test C pre-/postemergence herbicide test; assay type: in vivo, Sorghum halepense; conditions: for Johnsongrass plant response rating: Preemergence, scale 0 to 100, 0 no effect, 100 complete control
Summary of the method: (§1)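 Visual injury scores run from 0 (no effect) to 100 (complete control), assessed relative to untreated controls 12 to 14 days after treatment in the greenhouse. Chemicals were formulated in a non-phytotoxic solvent mixture with surfactant and applied to soil after planting or to emerged plants at the 1- to 4-leaf stage.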

goosegrass = test: Test C pre-/postemergence herbicide test; assay type: in vivo, Eleusine indica; conditions: for Goosegrass plant response rating: Preemergence, scale 0 to 100, 0 no effect, 100 complete control
Summary of the method: as §1

rice [1] = test: Test C flooded paddy test; assay type: in vivo, Oryza sativa; conditions: for Plant response rating, Rice: 500 g ai/ha, visual rating after 12 to 14 days
Summary of the method: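 Postemergence sprays applied to plants 2 to 18 cm tall (1- to 4-leaf stage); paddy species grown to 2-leaf stage under flooding. After 12 to 14 days in greenhouse, visual rating versus untreated controls on 0–100 scale (0 no effect, 100 complete control).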

Surinam grass = test: Test C pre-/postemergence herbicide test; assay type: in vivo, Urochloa decumbens; conditions: for Surinam Grass plant response rating: Preemergence, scale 0 to 100, 0 no effect, 100 complete control
Summary of the method: as §1

pigweed = test: Test C pre-/postemergence herbicide test; assay type: in vivo, Amaranthus retroflexus; conditions: for Pigweed plant response rating: Preemergence, scale 0 to 100, 0 no effect, 100 complete control
Summary of the method: as §1

large crabgrass = test: Test C pre-/postemergence herbicide test; assay type: in vivo, Digitaria sanguinalis; conditions: for Crabgrass, Large plant response rating: Preemergence, scale 0 to 100, 0 no effect, 100 complete control
Summary of the method: as §1

kochia = test: Test C pre-/postemergence herbicide test; assay type: in vivo, Kochia scoparia; conditions: for Kochia plant response rating: Preemergence, scale 0 to 100, 0 no effect, 100 complete control
Summary of the method: as §1

rice [2] = test: Test B pre-/postemergence herbicide test; assay type: in vivo, Oryza sativa; conditions: preemergence
Summary of the method: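 Herbicidal effect was judged by eye on a 0–100 scale after plants stood 13 to 15 days in the greenhouse following pre- or postemergence treatment with surfactant-containing formulations.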

soybean = test: Test C pre-/postemergence herbicide test; assay type: in vivo, Glycine max; conditions: for Soybean plant response rating: Preemergence, scale 0 to 100, 0 no effect, 100 complete control
Summary of the method: as §1

velvetleaf = test: Test C pre-/postemergence herbicide test; assay type: in vivo, Abutilon theophrasti; conditions: for Plant response rating, Velvetleaf: preemergence; for Velvetleaf plant response rating: Preemergence, scale 0 to 100, 0 no effect, 100 complete control
Summary of the method: as §1

[3] = 62 g ai/ha, preemergence, scale 0 to 100
[4] = 125 g ai/ha, scale 0 (no effect) to 100 (complete control), visual, 12 to 14 days, preemergence
[5] = 250 g ai/ha, scale 0-100, preemergence
[6] = 500 g ai/ha, scale 0 to 100 (0 no effect, 100 complete control), visual, 12 to 14 days, preemergence
[7] = 125 g ai/ha, scale 0 to 100 (0 no effect, 100 complete control)
[8] = 250 g ai/ha, scale of 0 to 100, 0 is no effect, 100 is complete control
[9] = scale 0 to 100 (0 no effect, 100 complete control)
[10] = 125 g ai/ha, 0 = no effect, 100 = complete control
[11] = 500 g ai/ha, visual rating, 0 = no effect, 100 = complete control
[12] = 500 g ai/ha, scale 0 to 100 (0 no effect, 100 complete control), visual, 12 to 14 days
[13] = 62 g ai/ha, scale 0 to 100 (0 no effect, 100 complete control)
[14] = 250 g ai/ha, scale 0 to 100 (0 no effect, 100 complete control), visual, 12 to 14 days, preemergence
[15] = 125 g ai/ha, 0 to 100 scale, 0 is no effect, 100 is complete control
[16] = 125 g ai/ha, scale 0 (no effect) to 100 (complete control), visual, 12 to 14 days

CCn1nc(C(C)(C)C)cc1C(=O)Nc1cc(C(=S)N(C)C)ccc1F [Compound 294]
Plant response rating, Johnsongrass (johnsongrass; [3]): 80
Plant response rating, Johnsongrass (johnsongrass; [4]): 100
Plant response rating, Johnsongrass (johnsongrass; [5]): 100
Plant response rating, Johnsongrass (johnsongrass; [6]): 100
Plant response rating, Goosegrass (goosegrass; [3]): 80
Plant response rating, Goosegrass (goosegrass; [4]): 80
Plant response rating, Goosegrass (goosegrass; [5]): 85
Plant response rating, Goosegrass (goosegrass; [6]): 100
Rice plant response rating (rice [1]; 62 g ai/ha, scale 0 to 100): 70
Rice plant response rating (rice [1]; [7]): 75
Rice plant response rating (rice [1]; [8]): 85
Plant response rating, Rice (rice [1]; [9]): 90
Plant response rating, Surinam Grass (Surinam grass; [3]): 85
Plant response rating, Surinam Grass (Surinam grass; [5]): 100
Plant response rating, Surinam Grass (Surinam grass; [6]): 100
Plant response rating, Pigweed (pigweed; [3]): 100
Plant response rating, Pigweed (pigweed; [4]): 100
Plant response rating, Pigweed (pigweed; [5]): 100
Plant response rating, Pigweed (pigweed; [6]): 100
Plant response rating, Crabgrass, Large (large crabgrass; [3]): 70
Plant response rating, Crabgrass, Large (large crabgrass; [4]): 95
Plant response rating, Crabgrass, Large (large crabgrass; [5]): 100
Plant response rating, Crabgrass, Large (large crabgrass; [6]): 100
Plant response rating, Kochia (kochia; [3]): 100
Plant response rating, Kochia (kochia; [4]): 100
Plant response rating, Kochia (kochia; [5]): 100
Plant response rating, Kochia (kochia; [6]): 100
Rice plant response rating (0 to 100 scale) (rice [2]; [10]): 90
Plant response rating, Rice (rice [2]; [11]): 100
Plant response rating, Soybean (soybean; [3]): 70
Plant response rating, Soybean (soybean; [5]): 100
Plant response rating, Soybean (soybean; [6]): 100
Plant response rating, Velvetleaf (velvetleaf; 62 g ai/ha, scale 0 to 100): 100
Plant response rating, Velvetleaf (velvetleaf; 250 g ai/ha, scale 0-100): 100
Plant response rating, Velvetleaf (velvetleaf; [12]): 100

CCOC(=O)c1cccc(NC(=O)c2cc(C(C)(C)C)nn2CC)c1C [Compound 88]
Plant response rating (0 = no effect, 100 = complete control), Johnsongrass (johnsongrass; 62 g ai/ha, preemergence): 0
Plant response rating, Johnsongrass (johnsongrass; [4]): 20
Johnsongrass plant response rating (johnsongrass; 500 g ai/ha): 70
Plant response rating (0 = no effect, 100 = complete control), Goosegrass (goosegrass; 62 g ai/ha, preemergence): 60
Plant response rating, Goosegrass (goosegrass; [4]): 90
Goosegrass plant response rating (goosegrass; 500 g ai/ha): 100
Rice plant response rating (rice [1]; [13]): 0
Rice plant response rating (rice [1]; 125 g ai/ha, scale of 0 to 100, 0 is no effect, 100 is complete control): 0
Rice plant response rating (rice [1]; [8]): 20
Plant response rating, Rice (rice [1]; [9]): 45
Plant response rating (0 = no effect, 100 = complete control), Surinam Grass (Surinam grass; 62 g ai/ha, preemergence): 10
Plant response rating, Surinam Grass (Surinam grass; [4]): 20
Surinam Grass plant response rating (Surinam grass; 500 g ai/ha): 95
Plant response rating (0 = no effect, 100 = complete control), Pigweed (pigweed; 62 g ai/ha, preemergence): 100
Plant response rating, Pigweed (pigweed; [4]): 100
Pigweed plant response rating (pigweed; 500 g ai/ha): 100
Plant response rating (0 = no effect, 100 = complete control), Crabgrass, Large (large crabgrass; 62 g ai/ha, preemergence): 90
Plant response rating, Crabgrass, Large (large crabgrass; [4]): 95
Plant response rating, Crabgrass, Large (large crabgrass; [14]): 95
Crabgrass, Large plant response rating (large crabgrass; 500 g ai/ha): 100
Plant response rating (0 = no effect, 100 = complete control), Kochia (kochia; 62 g ai/ha, preemergence): 0
Plant response rating, Kochia (kochia; [4]): 85
Kochia plant response rating (kochia; 500 g ai/ha): 100
Plant response rating, Rice (rice [2]; [15]): 20
Plant response rating (0 = no effect, 100 = complete control), Soybean (soybean; 62 g ai/ha, preemergence): 0
Plant response rating, Soybean (soybean; [4]): 0
Soybean plant response rating (soybean; 500 g ai/ha): 10
Plant response rating, Velvetleaf (velvetleaf; [16]): 0
Velvetleaf plant response rating (velvetleaf; 500 g ai/ha): 50

CCn1nc(C(C)(C)C)cc1C(=O)Nc1cccc(C(N)=O)n1 [Compound 162, 6-[[[3-(1,1-dimethylethyl)-1-ethyl-1H-pyrazol-5-yl]carbonyl]amino]-2-pyridinecarboxamide]
Plant response rating, Johnsongrass (johnsongrass; [3]): 65
Plant response rating, Johnsongrass (johnsongrass; [4]): 80
Johnsongrass plant response rating (johnsongrass; 500 g ai/ha): 95
Plant response rating, Goosegrass (goosegrass; [3]): 60
Plant response rating, Goosegrass (goosegrass; [4]): 60
Goosegrass plant response rating (goosegrass; 500 g ai/ha): 80
Rice plant response rating (rice [1]; [13]): 55
Rice plant response rating (rice [1]; [7]): 60
Rice plant response rating (rice [1]; [8]): 70
Plant response rating, Rice (rice [1]; [9]): 75
Plant response rating, Surinam Grass (Surinam grass; [3]): 0
Plant response rating, Surinam Grass (Surinam grass; [4]): 75
Surinam Grass plant response rating (Surinam grass; 500 g ai/ha): 95
Plant response rating, Pigweed (pigweed; [3]): 100
Plant response rating, Pigweed (pigweed; [4]): 100
Pigweed plant response rating (pigweed; 500 g ai/ha): 100
Plant response rating, Crabgrass, Large (large crabgrass; [3]): 35
Plant response rating, Crabgrass, Large (large crabgrass; [4]): 40
Plant response rating, Crabgrass, Large (large crabgrass; [14]): 80
Crabgrass, Large plant response rating (large crabgrass; 500 g ai/ha): 100
Plant response rating, Kochia (kochia; [3]): 65
Plant response rating, Kochia (kochia; [4]): 75
Kochia plant response rating (kochia; 500 g ai/ha): 100
Plant response rating, Rice (rice [2]; 500 g ai/ha, visual rating 0-100, 0 no effect, 100 complete control): 90
Plant response rating, Rice (rice [2]; [15]): 90
Plant response rating, Soybean (soybean; [3]): 15
Plant response rating, Soybean (soybean; [4]): 75
Soybean plant response rating (soybean; 500 g ai/ha): 100
Plant response rating, Velvetleaf (velvetleaf; 62 g ai/ha, scale 0 to 100): 70
Plant response rating, Velvetleaf (velvetleaf; [16]): 75
Velvetleaf plant response rating (velvetleaf; 500 g ai/ha): 100

CCc1nn(C(C)(C)C)cc1C(=O)Nc1cc(C(=O)N(CC)CC)ccc1F [Compound 223]
Plant response rating, Johnsongrass (johnsongrass; [3]): 80
Plant response rating, Johnsongrass (johnsongrass; [4]): 80
Plant response rating, Goosegrass (goosegrass; [3]): 60
Plant response rating, Goosegrass (goosegrass; [4]): 80
Plant response rating, Goosegrass (goosegrass; [5]): 80
Plant response rating, Goosegrass (goosegrass; [6]): 100
Rice plant response rating (rice [1]; [13]): 0
Rice plant response rating (rice [1]; [7]): 0
Rice plant response rating (rice [1]; [8]): 45
Plant response rating, Rice (rice [1]; [9]): 75
Plant response rating, Surinam Grass (Surinam grass; [3]): 50
Plant response rating, Surinam Grass (Surinam grass; [5]): 70
Plant response rating, Surinam Grass (Surinam grass; [6]): 85
Plant response rating, Pigweed (pigweed; [3]): 100
Plant response rating, Pigweed (pigweed; [4]): 100
Plant response rating, Pigweed (pigweed; [5]): 100
Plant response rating, Pigweed (pigweed; [6]): 100
Plant response rating, Crabgrass, Large (large crabgrass; [3]): 100
Plant response rating, Crabgrass, Large (large crabgrass; [4]): 100
Plant response rating, Crabgrass, Large (large crabgrass; [5]): 100
Plant response rating, Crabgrass, Large (large crabgrass; [6]): 100
Plant response rating, Kochia (kochia; [3]): 85
Plant response rating, Kochia (kochia; [4]): 90
Plant response rating, Kochia (kochia; [5]): 100
Plant response rating, Kochia (kochia; [6]): 100
Rice plant response rating (0 to 100 scale) (rice [2]; [10]): 0
Plant response rating, Rice (rice [2]; [11]): 30
Plant response rating, Soybean (soybean; [3]): 0
Plant response rating, Soybean (soybean; [5]): 80
Plant response rating, Soybean (soybean; [6]): 90
Plant response rating, Velvetleaf (velvetleaf; 62 g ai/ha, scale 0 to 100): 0
Plant response rating, Velvetleaf (velvetleaf; 250 g ai/ha, scale 0-100): 100
Plant response rating, Velvetleaf (velvetleaf; [12]): 100
